The values that follow come from PubChem BioAssay AID256 (DTP/NCI, 2004).

Several values for one entry are separate records, joined by “and”; a condition that tells them apart may be missing. Identical values can stand only once. Toxic doses and inconclusive results are not listed.

This assay concerns CD2F1 mice, L1210 leukemia ip, survival T/C. The experiment in a line: NCI In Vivo Anticancer Drug Screen. Data for tumor model L1210 Leukemia (intraperitoneal) in CD2F1 (CDF1) mice. The following applies: higher = longer survival. On the procedure: The antitumor activity of compounds was measured in mice bearing transplantable tumors. Survival or tumor size were measured and the results are expressed as the measurement made in the treated group (T) divided by the measurement made in the vehicle treated control group (C). The tumor model used in this assay is L1210 Leukemia (intraperitoneal) in CD2F1 (CDF1) mice

[1] abbreviates: endpoint: mean survival time, dose: 100.0 mg/kg/injection, schedule: Q04DX003 (ip), vehicle: saline with Tween-80.

On to `O=CC(O)C(O)C(O)C(O)C(=O)O.[NH-]C1CCCCC1[NH-].[Pt+2]` (centres undefined), for which the T/C was 156 % of control (endpoint: mean survival time, dose: 0.78 mg/kg/injection, schedule: Q01DX005 (ip), vehicle: saline); 203 % of control (endpoint: mean survival time, dose: 1.56 mg/kg/injection, schedule: Q01DX005 (ip), vehicle: saline); 160 % of control (endpoint: mean survival time, dose: 1.56 mg/kg/injection, schedule: Q01DX009 (ip), vehicle: saline); 266 % of control (endpoint: mean survival time, dose: 3.12 mg/kg/injection, schedule: Q01DX005 (ip), vehicle: saline); 150 % of control (endpoint: mean survival time, dose: 3.12 mg/kg/injection, schedule: Q04DX003 (ip), vehicle: saline); 200 % of control (endpoint: mean survival time, dose: 3.13 mg/kg/injection, schedule: Q01DX009 (ip), vehicle: saline). For the same compound, the T/C runs as follows: (endpoint: mean survival time, dose: 6.25 mg/kg/injection, schedule: Q01DX005 (ip), vehicle: saline) 300 % of control; (endpoint: mean survival time, dose: 6.25 mg/kg/injection, schedule: Q01DX009 (ip), vehicle: saline) 167 % of control; (endpoint: mean survival time, dose: 6.25 mg/kg/injection, schedule: Q04DX003 (ip), vehicle: saline) 280 % of control; (endpoint: mean survival time, dose: 12.5 mg/kg/injection, schedule: Q01DX005 (ip), vehicle: saline) 103 % of control; (endpoint: mean survival time, dose: 12.5 mg/kg/injection, schedule: Q04DX003 (ip), vehicle: saline) 301 % of control; (endpoint: mean survival time, dose: 25.0 mg/kg/injection, schedule: Q04DX003 (ip), vehicle: saline) 231 % of control and 259 % of control. Besides, the T/C runs as follows: (endpoint: mean survival time, dose: 50.0 mg/kg/injection, schedule: Q04DX003 (ip), vehicle: saline) 108 % of control; (endpoint: median survival time, dose: 1.02 mg/kg/injection, schedule: Q01DX009 (ip), vehicle: saline) 160 % of control and 170 % of control; (endpoint: median survival time, dose: 1.37 mg/kg/injection, schedule: Q01DX009 (ip), vehicle: saline) 170 % of control and 180 % of control; (endpoint: median survival time, dose: 1.56 mg/kg/injection, schedule: Q01DX009 (ip), vehicle: saline) 236 % of control; (endpoint: median survival time, dose: 2.09 mg/kg/injection, schedule: Q01DX009 (ip), vehicle: saline) 189 % of control and 714 % of control; (endpoint: median survival time, dose: 3.12 mg/kg/injection, schedule: Q01DX009 (ip), vehicle: saline) 188 % of control and 253 % of control and 261 % of control. The T/C is, setting by setting: (endpoint: median survival time, dose: 6.25 mg/kg/injection, schedule: Q01DX009 (ip), vehicle: saline) 119 % of control; (endpoint: median survival time, dose: 6.25 mg/kg/injection, schedule: Q04DX003 (ip), vehicle: saline) 101 % of control; (endpoint: median survival time, dose: 12.5 mg/kg/injection, schedule: Q01DX009 (ip), vehicle: saline) 90 % of control; (endpoint: median survival time, dose: 12.5 mg/kg/injection, schedule: Q04DX003 (ip), vehicle: saline) 100 % of control; (endpoint: median survival time, dose: 12.5 mg/kg/injection, schedule: Q04DX003 (iv), vehicle: saline) 123 % of control; (endpoint: median survival time, dose: 25.0 mg/kg/injection, schedule: Q04DX003 (ip), vehicle: saline) 103 % of control. Also, the T/C reads like this: (endpoint: median survival time, dose: 50.0 mg/kg/injection, schedule: Q04DX003 (iv), vehicle: saline) 365 % of control; (endpoint: median survival time, dose: 100.0 mg/kg/injection, schedule: Q04DX003 (ip), vehicle: saline) 113 % of control.

`CCC[CH2][Sn]1([CH2]CCC)[O]C2C(CO)OC(n3ccc(=O)[nH]c3=O)C2[O]1` (centres undefined): the T/C was 98 % of control (endpoint: mean survival time, dose: 1.56 mg/kg/injection, schedule: Q01DX005 (ip), vehicle: other); 102 % of control (endpoint: mean survival time, dose: 3.13 mg/kg/injection, schedule: Q01DX005 (ip), vehicle: other); 112 % of control (endpoint: mean survival time, dose: 6.25 mg/kg/injection, schedule: Q01DX005 (ip), vehicle: other); 100 % of control (endpoint: mean survival time, dose: 12.5 mg/kg/injection, schedule: Q01DX005 (ip), vehicle: other).

Consider `CSc1nc2cc(S(=O)(=O)N3CCCCC3)ccc2s1`, for which the T/C by setting is: (endpoint: mean survival time, dose: 100.0 mg/kg/injection, schedule: Q01DX009 (ip), vehicle: saline with Tween-80) 93 % of control; under setting [1], 89 % of control; (endpoint: mean survival time, dose: 200.0 mg/kg/injection, schedule: Q01DX009 (ip), vehicle: saline with Tween-80) 95 % of control; (endpoint: mean survival time, dose: 200.0 mg/kg/injection, schedule: Q04DX003 (ip), vehicle: saline with Tween-80) 89 % of control; (endpoint: mean survival time, dose: 400.0 mg/kg/injection, schedule: Q01DX009 (ip), vehicle: saline with Tween-80) 93 % of control; (endpoint: mean survival time, dose: 400.0 mg/kg/injection, schedule: Q04DX003 (ip), vehicle: saline with Tween-80) 86 % of control.

Consider `NNc1nc(=O)[nH]nc1SCc1ccccc1`, for which the T/C reads like this: (endpoint: mean survival time, dose: 75.0 mg/kg/injection, schedule: Q01DX001 (ip), vehicle: saline) 96 % of control; (endpoint: mean survival time, dose: 150.0 mg/kg/injection, schedule: Q01DX001 (ip), vehicle: saline) 88 % of control.

Take `CCCCC(=O)N(c1ccc(Nc2c3ccccc3nc3cc([N+](=O)[O-])ccc23)cc1)S(C)(=O)=O`: the T/C is 117 % of control (endpoint: mean survival time, dose: 2.1 mg/kg/injection, schedule: Q04DX003 (ip), vehicle: Klucel (hydroxypropylcellulose) (HPC)); 96 % of control (endpoint: mean survival time, dose: 25.0 mg/kg/injection, schedule: Q01DX009 (ip), vehicle: saline with Tween-80); 98 % of control under setting [1]; 167 % of control (endpoint: mean survival time, dose: 100.0 mg/kg/injection, schedule: Q04DX003 (ip), vehicle: saline); 93 % of control (endpoint: mean survival time, dose: 150.0 mg/kg/injection, schedule: Q04DX003 (ip), vehicle: saline with Tween-80); 113 % of control (endpoint: mean survival time, dose: 200.0 mg/kg/injection, schedule: Q04DX003 (ip), vehicle: saline).

For `COc1ccc(CC#N)cc1OC`, the T/C is, setting by setting: (endpoint: mean survival time, dose: 3.75 mg/kg/injection, schedule: Q01DX009 (ip), vehicle: saline with Tween-80) 95 % of control; (endpoint: mean survival time, dose: 3.75 mg/kg/injection, schedule: Q04DX003 (ip), vehicle: saline with Tween-80) 107 % of control; (endpoint: mean survival time, dose: 7.5 mg/kg/injection, schedule: Q01DX009 (ip), vehicle: saline with Tween-80) 95 % of control; (endpoint: mean survival time, dose: 7.5 mg/kg/injection, schedule: Q04DX003 (ip), vehicle: saline with Tween-80) 103 % of control; (endpoint: mean survival time, dose: 15.0 mg/kg/injection, schedule: Q01DX009 (ip), vehicle: saline with Tween-80) 95 % of control; (endpoint: mean survival time, dose: 15.0 mg/kg/injection, schedule: Q04DX003 (ip), vehicle: saline with Tween-80) 103 % of control.

For `c1ccc2sc(SCCSc3nc4ccccc4s3)nc2c1`, the T/C is 107 % of control (endpoint: mean survival time, dose: 25.0 mg/kg/injection, schedule: Q04DX002 (ip), vehicle: saline with Tween-80); 88 % of control (endpoint: mean survival time, dose: 100.0 mg/kg/injection, schedule: Q04DX002 (ip), vehicle: saline with Tween-80); 87 % of control (endpoint: mean survival time, dose: 200.0 mg/kg/injection, schedule: Q04DX002 (ip), vehicle: saline with Tween-80); 87 % of control (endpoint: mean survival time, dose: 400.0 mg/kg/injection, schedule: Q04DX002 (ip), vehicle: saline with Tween-80).
